Activity calls are given as the source filed them. No cut-off for these calls is given here.
Experiments:
Mus musculus [1] = experiment: Toxicity in mouse at 54.5 mg/kg, sc; type: organism-based; parameters: dose 54.5 mg/kg, route subcutaneous; conditions: in vivo
Mus musculus [2] = experiment: Analgesic activity in sc dosed mouse by hot-plate method; type: functional
Mus musculus [3] = experiment: Toxicity in mouse at 1.56 to 25 mg/kg, sc; type: organism-based; parameters: dose 1.56-25 mg/kg, route subcutaneous; conditions: in vivo
Mus musculus [4] = experiment: Analgesic activity in sc dosed mouse by Nilsen method; type: functional
Mus musculus [5] = experiment: Analgesic activity in mouse at 20 mg/kg, sc by Nilsen method; type: functional, organism-based; parameters: dose 20 mg/kg
Mus musculus [6] = experiment: Toxicity in mouse at 20 mg/kg, sc; type: organism-based; parameters: dose 20 mg/kg, route subcutaneous; conditions: in vivo
[7] = molecular target: Opioid receptor (Rattus norvegicus) (UniProt P33533+P34975+P33535); experiment: Displacement of [3H]dihydromorphine from opiate receptor in rat brain homogenates; type: tissue-based
Mus musculus [8] = experiment: Analgesic activity in mouse at 20 mg/kg, sc by hot-plate method; type: functional, organism-based; parameters: dose 20 mg/kg
Rhesus monkey [9] = experiment: Toxicity in nonwithdrawn monkey assessed as precipitation of abstinence sign at 8 mg/kg; type: organism-based, Macaca mulatta; parameters: dose 8 mg/kg; conditions: in vivo
Mus musculus [10] = experiment: Toxicity in mouse at 5 to 40 mg/kg, sc; type: organism-based; parameters: dose 5-40 mg/kg, route subcutaneous; conditions: in vivo
Rhesus monkey [11] = experiment: Toxicity in monkey assessed as morphine-like physical dependence liability at 2 to 4 mg/kg; type: organism-based, Macaca mulatta; parameters: dose 2-4 mg/kg; conditions: in vivo
Rhesus monkey [12] = experiment: Toxicity in nonwithdrawn monkey assessed as retching, vomiting and preconvulsive appearance at 16 mg/kg up to 5 mins; type: organism-based, Macaca mulatta; parameters: dose 16 mg/kg; conditions: in vivo
Mus musculus [13] = experiment: Toxicity in mouse at 1.25 to 20 mg/kg, sc; type: organism-based; parameters: dose 1.25-20 mg/kg, route subcutaneous; conditions: in vivo
Rhesus monkey [14] = experiment: Toxicity in nonwithdrawn monkey assessed as convulsion at 16 mg/kg up to 5 mins; type: organism-based, Macaca mulatta; parameters: dose 16 mg/kg; conditions: in vivo
Rhesus monkey [15] = experiment: Toxicity in nonwithdrawn monkey assessed as nausea at 4 mg/kg; type: organism-based, Macaca mulatta; parameters: dose 4 mg/kg; conditions: in vivo
Rhesus monkey [16] = experiment: Toxicity in nonwithdrawn monkey assessed as nausea and piloerection at 8 mg/kg; type: organism-based, Macaca mulatta; parameters: dose 8 mg/kg; conditions: in vivo
Mus musculus [17] = experiment: Analgesic activity in mouse at 50 mg/kg, sc by hot-plate method; type: functional, organism-based; parameters: dose 50 mg/kg

Sequence of Opioid receptor (Rattus norvegicus) (P33533 whole entry, looked up): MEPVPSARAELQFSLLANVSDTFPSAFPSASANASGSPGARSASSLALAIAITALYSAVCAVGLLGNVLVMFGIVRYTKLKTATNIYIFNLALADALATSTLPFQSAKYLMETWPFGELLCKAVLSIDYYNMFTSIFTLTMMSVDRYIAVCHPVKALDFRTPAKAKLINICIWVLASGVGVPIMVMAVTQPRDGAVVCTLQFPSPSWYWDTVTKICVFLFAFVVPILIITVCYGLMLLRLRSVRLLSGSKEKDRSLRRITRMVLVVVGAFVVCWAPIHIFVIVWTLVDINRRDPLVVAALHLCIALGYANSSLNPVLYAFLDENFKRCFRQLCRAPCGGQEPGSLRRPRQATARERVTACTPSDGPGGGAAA
Sequence of Opioid receptor (Rattus norvegicus) (P33535 whole entry, looked up): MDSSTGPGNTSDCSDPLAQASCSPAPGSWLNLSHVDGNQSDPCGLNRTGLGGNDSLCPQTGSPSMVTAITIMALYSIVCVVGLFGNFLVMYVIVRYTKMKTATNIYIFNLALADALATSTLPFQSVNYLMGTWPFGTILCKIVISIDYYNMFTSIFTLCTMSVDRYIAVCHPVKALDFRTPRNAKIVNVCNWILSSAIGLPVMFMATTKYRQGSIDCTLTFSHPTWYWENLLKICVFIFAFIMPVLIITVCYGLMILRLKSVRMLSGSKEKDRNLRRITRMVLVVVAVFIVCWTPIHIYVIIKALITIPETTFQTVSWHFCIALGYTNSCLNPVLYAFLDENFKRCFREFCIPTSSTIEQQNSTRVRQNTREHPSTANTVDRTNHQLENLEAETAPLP
Sequence of Opioid receptor (Rattus norvegicus) (P34975 whole entry, looked up): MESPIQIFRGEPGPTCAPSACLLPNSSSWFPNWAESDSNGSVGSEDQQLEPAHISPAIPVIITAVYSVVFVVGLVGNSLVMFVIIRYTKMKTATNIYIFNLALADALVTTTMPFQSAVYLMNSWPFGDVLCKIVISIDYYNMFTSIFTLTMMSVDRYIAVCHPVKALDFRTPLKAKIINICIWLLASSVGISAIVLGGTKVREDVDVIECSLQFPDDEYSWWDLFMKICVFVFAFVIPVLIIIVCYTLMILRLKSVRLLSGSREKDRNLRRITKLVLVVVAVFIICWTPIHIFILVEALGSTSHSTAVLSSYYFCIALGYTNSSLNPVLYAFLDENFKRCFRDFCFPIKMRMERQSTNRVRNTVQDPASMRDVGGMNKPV

COc1cccc(C(=O)OC2CCN(C)CC2)c1
Activity (Mus musculus [1]): Non-toxic
ED50 (Mus musculus [2]): 6.1 mg/kg
Activity (Mus musculus [3]): Non-toxic

COc1ccc(C(=O)OC2CCN(C)CC2)cc1
ED50 (Mus musculus [2]): 10.5 mg/kg

COc1cc(OC)c(C(=O)OC2CCN(C)CC2)c(OC)c1
ED50 (Mus musculus [2]): 11.6 mg/kg

COc1cccc(OC)c1C(=O)OC1CCN(C)CC1
ED50 (Mus musculus [2]): 73.8 mg/kg

Cc1cc(C)c(C(=O)OC2CCN(CCc3ccccc3)CC2)c(C)c1
ED50 (Mus musculus [2]): 37 mg/kg

Cc1[nH]c(C)c(C(=O)OC2CCN(C)CC2)c1C
ED50 (Mus musculus [2]): 4.9 mg/kg
ED50 (Mus musculus [4]): 7.1 mg/kg

CN1CCC(OC(=O)c2ccccc2)CC1
ED50 (Mus musculus [2]): 9.6 mg/kg

CN1CCC(OC(=O)c2cc(I)cc(I)c2I)CC1
ED50 (Mus musculus [2]): inactive

COc1cc(C(=O)OC2CCN(C)CC2)ccc1C
ED50 (Mus musculus [2]): 11.9 mg/kg

Cc1ccc(C)c(C(=O)OC2CCN(C)CC2)c1
ED50 (Mus musculus [2]): 12.5 mg/kg

CCOC(=O)[C@@H]1CN(C)CC[C@@H]1OC(=O)c1ccc(OC)c(OC)c1 (relative stereo)
ED50 (Mus musculus [5]): Active
Activity (Mus musculus [6]): Toxic
ED50 (Mus musculus [2]): 4 mg/kg

CC(C(=O)OC1CCN(C)CC1)c1ccccc1 (stereo unspecified)
ED50 (Mus musculus [2]): 25.4 mg/kg

CN1CCC(OC(=O)CCCc2ccccc2)CC1
ED50 (Mus musculus [2]): inactive

CN1CCC(OC(=O)Cc2ccccc2)CC1
ED50 (Mus musculus [2]): inactive

Cc1cc(C)c(C(=O)OC2CCN(C)CC2)cc1C
ED50 (Mus musculus [2]): 20 mg/kg

Cc1ccccc1C(=O)OC1CCN(C)CC1
ED50 (Mus musculus [2]): 8.9 mg/kg

COc1ccc(C(=O)O[C@H]2CCN(C)C[C@@H]2C)cc1OC
K [7]: > 100 µM
ED50 (Mus musculus [2]): 8.3 mg/kg

Cc1ccc(C(=O)OC2CCN(C)CC2)cc1C
Analgesic activity (active/inactive) (Mus musculus [8]): Active

CN1CCC(OC(=O)C23CC4CC(CC(C4)C2)C3)CC1
ED50 (Mus musculus [2]): 15.9 mg/kg

CN1CC[C@]23c4c5ccc(O)c4O[C@H]2[C@@H](O)C=C[C@H]3[C@H]1C5 [MORPHINE]
ED50 (Mus musculus [2]): 1.2 mg/kg
ED50 (Mus musculus [4]): 0.8 mg/kg

COc1ccc(C(=O)O[C@H]2CCN(C)C[C@H]2C)cc1OC (relative stereo)
K [7]: > 100 µM
Analgesic activity (active/inactive) (Mus musculus [8]): Active

CN1CCC(OC(=O)c2ccc(F)cc2)CC1
ED50 (Mus musculus [2]): 11.5 mg/kg

Cc1cc(C)c(C(=O)OC2CCN(C)CC2)c(C)c1
ED50 (Mus musculus [2]): 8.3 mg/kg
ED50 (Mus musculus [4]): 46 mg/kg

Cc1cccc(C)c1C(=O)OC1CCN(C)CC1
ED50 (Mus musculus [2]): 15.2 mg/kg

COc1ccccc1C(=O)OC1CCN(C)CC1
ED50 (Mus musculus [2]): 10.6 mg/kg

Cc1cccc(C(=O)OC2CCN(C)CC2)c1
ED50 (Mus musculus [2]): inactive

Cc1ccc(C(=O)OC2CCN(C)CC2)cc1
ED50 (Mus musculus [2]): 18.2 mg/kg

CN1CCC(OC(=O)c2ccccc2Oc2ccccc2)CC1
Analgesic activity (active/inactive) (Mus musculus [8]): Active

COc1ccc(CCC(=O)OC2CCN(C)CC2)cc1OC
ED50 (Mus musculus [2]): 30.7 mg/kg
ED50 (Mus musculus [4]): 32 mg/kg

COc1cc(OC)cc(C(=O)OC2CCN(C)CC2)c1
ED50 (Mus musculus [2]): 9.3 mg/kg

CCOC(=O)[C@H]1CN(C)CC[C@@H]1OC(=O)c1ccc(OC)c(OC)c1 (relative stereo)
ED50 (Mus musculus [2]): 11.8 mg/kg

Cc1ccc(C(=O)OC2CCN(C)CC2)cc1F
ED50 (Mus musculus [2]): 13.9 mg/kg

COc1ccc2c3c1O[C@H]1[C@@H](O)C=C[C@H]4[C@@H](C2)N(C)CC[C@@]341 [CODEINE]
ED50 (Mus musculus [2]): 7.5 mg/kg
ED50 (Mus musculus [4]): 4.5 mg/kg

COc1cccc(C(=O)OC2CCN(C)CC2)c1OC
ED50 (Mus musculus [2]): 8.9 mg/kg
ED50 (Mus musculus [4]): 19.6 mg/kg

CN1CCC(OC(=O)/C=C/c2ccccc2)CC1
ED50 (Mus musculus [2]): 16.2 mg/kg

CN1CCC(OC(=O)c2ccccc2F)CC1
ED50 (Mus musculus [2]): 10.6 mg/kg

CN1CCC(OC(=O)c2cccc(O)c2)CC1
ED50 (Mus musculus [2]): 16.6 mg/kg

CN1CCC(OC(=O)c2ccc3c(c2)OCO3)CC1
ED50 (Mus musculus [2]): 7.3 mg/kg

Cc1cc(C)cc(C(=O)OC2CCN(C)CC2)c1
ED50 (Mus musculus [2]): 24.4 mg/kg

CN1CCC(OC(=O)c2ccc(Cl)c(Cl)c2)CC1
ED50 (Mus musculus [2]): 27.1 mg/kg

CN1CCC(OC(=O)C2c3ccccc3-c3ccccc32)CC1
ED50 (Mus musculus [2]): inactive

COc1ccc(C(=O)OC2CCN(C)CC2)cc1OC
Activity (Rhesus monkey [9]): Non-toxic
Activity (Mus musculus [1]): Non-toxic
Activity (Mus musculus [10]): Non-toxic
Activity (Rhesus monkey [11]): Non-toxic
Activity (Rhesus monkey [12]): Toxic
Activity (Mus musculus [13]): Non-toxic
Activity (Rhesus monkey [14]): Toxic
Activity (Rhesus monkey [15]): Toxic
ED50 (Mus musculus [2]): 3.9 mg/kg
ED50 (Mus musculus [4]): 13.1 mg/kg
Activity (Mus musculus [3]): Non-toxic
Activity (Rhesus monkey [16]): Toxic

CCOc1ccccc1C(=O)OC1CCN(C)CC1
Analgesic activity (active/inactive) (Mus musculus [8]): Active

CN1CCC(OC(=O)c2ccc(C(C)(C)C)cc2)CC1
ED50 (Mus musculus [2]): 23.3 mg/kg

CN1CCC(OC(=O)c2cccc(F)c2)CC1
ED50 (Mus musculus [2]): 15.1 mg/kg

CCC(=O)OC1CCN(C)CC1
ED50 (Mus musculus [2]): 20.2 mg/kg

COc1cc(C(=O)OC2CCN(C)CC2)cc(OC)c1OC
ED50 (Mus musculus [2]): 15.4 mg/kg

CN1CCC(OC(=O)c2ccccc2CCc2ccccc2)CC1
ED50 (Mus musculus [17]): Active

— ChEMBL document CHEMBL3244128, “Aromatic esters of nonquaternary carbon-4 piperidinols as analgesics” (J Med Chem, 1978)
